In BigSolDB 2.1:

Clc1ncnc2[nH]ccc12
solubility (mole fraction) (in THF, 278.15 K): 0.0461 | solubility (mole fraction) (in THF, 283.15 K): 0.0501 | solubility (mole fraction) (in THF, 288.15 K): 0.0544 | solubility (mole fraction) (in THF, 293.15 K): 0.0594 | solubility (mole fraction) (in THF, 298.15 K): 0.0644 | solubility (mole fraction) (in THF, 303.15 K): 0.0699 | solubility (mole fraction) (in THF, 308.15 K): 0.0757 | solubility (mole fraction) (in THF, 313.15 K): 0.0818 | solubility (mole fraction) (in THF, 318.15 K): 0.0881 | solubility (mole fraction) (in THF, 323.15 K): 0.0954 | solubility (mole fraction) (in acetone, 278.15 K): 0.0146 | solubility (mole fraction) (in acetone, 283.15 K): 0.0165 | solubility (mole fraction) (in acetone, 288.15 K): 0.0187 | solubility (mole fraction) (in acetone, 293.15 K): 0.021 | solubility (mole fraction) (in acetone, 298.15 K): 0.0238 | solubility (mole fraction) (in acetone, 303.15 K): 0.0265 | solubility (mole fraction) (in acetone, 308.15 K): 0.0296 | solubility (mole fraction) (in acetone, 313.15 K): 0.0331 | solubility (mole fraction) (in acetone, 318.15 K): 0.0368 | solubility (mole fraction) (in acetone, 323.15 K): 0.0409 | solubility (mole fraction) (in acetonitrile, 278.15 K): 0.00218 | solubility (mole fraction) (in acetonitrile, 283.15 K): 0.00277 | solubility (mole fraction) (in acetonitrile, 288.15 K): 0.00338 | solubility (mole fraction) (in acetonitrile, 293.15 K): 0.00413 | solubility (mole fraction) (in acetonitrile, 298.15 K): 0.00502 | solubility (mole fraction) (in acetonitrile, 303.15 K): 0.00615 | solubility (mole fraction) (in acetonitrile, 308.15 K): 0.00736 | solubility (mole fraction) (in acetonitrile, 313.15 K): 0.00881 | solubility (mole fraction) (in acetonitrile, 318.15 K): 0.0104 | solubility (mole fraction) (in acetonitrile, 323.15 K): 0.0124 | solubility (mole fraction) (in ethanol, 278.15 K): 0.00849 | solubility (mole fraction) (in ethanol, 283.15 K): 0.0098 | solubility (mole fraction) (in ethanol, 288.15 K): 0.0113 | solubility (mole fraction) (in ethanol, 293.15 K): 0.0131 | solubility (mole fraction) (in ethanol, 298.15 K): 0.0151 | solubility (mole fraction) (in ethanol, 303.15 K): 0.0174 | solubility (mole fraction) (in ethanol, 308.15 K): 0.0199 | solubility (mole fraction) (in ethanol, 313.15 K): 0.0225 | solubility (mole fraction) (in ethanol, 318.15 K): 0.0256 | solubility (mole fraction) (in ethanol, 323.15 K): 0.0291 | solubility (mole fraction) (in ethyl acetate, 278.15 K): 0.0132 | solubility (mole fraction) (in ethyl acetate, 283.15 K): 0.0151 | solubility (mole fraction) (in ethyl acetate, 288.15 K): 0.0172 | solubility (mole fraction) (in ethyl acetate, 293.15 K): 0.0194 | solubility (mole fraction) (in ethyl acetate, 298.15 K): 0.0218 | solubility (mole fraction) (in ethyl acetate, 303.15 K): 0.0246 | solubility (mole fraction) (in ethyl acetate, 308.15 K): 0.0274 | solubility (mole fraction) (in ethyl acetate, 313.15 K): 0.0307 | solubility (mole fraction) (in ethyl acetate, 318.15 K): 0.034 | solubility (mole fraction) (in ethyl acetate, 323.15 K): 0.0376 | solubility (mole fraction) (in isopropanol, 278.15 K): 0.00973 | solubility (mole fraction) (in isopropanol, 283.15 K): 0.0113 | solubility (mole fraction) (in isopropanol, 288.15 K): 0.0131 | solubility (mole fraction) (in isopropanol, 293.15 K): 0.0151 | solubility (mole fraction) (in isopropanol, 298.15 K): 0.0174 | solubility (mole fraction) (in isopropanol, 303.15 K): 0.0198 | solubility (mole fraction) (in isopropanol, 308.15 K): 0.0226 | solubility (mole fraction) (in isopropanol, 313.15 K): 0.0258 | solubility (mole fraction) (in isopropanol, 318.15 K): 0.0291 | solubility (mole fraction) (in isopropanol, 323.15 K): 0.0328 | solubility (mole fraction) (in methanol, 278.15 K): 0.0065 | solubility (mole fraction) (in methanol, 283.15 K): 0.00781 | solubility (mole fraction) (in methanol, 288.15 K): 0.0093 | solubility (mole fraction) (in methanol, 293.15 K): 0.011 | solubility (mole fraction) (in methanol, 298.15 K): 0.013 | solubility (mole fraction) (in methanol, 303.15 K): 0.0152 | solubility (mole fraction) (in methanol, 308.15 K): 0.0177 | solubility (mole fraction) (in methanol, 313.15 K): 0.0205 | solubility (mole fraction) (in methanol, 318.15 K): 0.0236 | solubility (mole fraction) (in methanol, 323.15 K): 0.0272 | solubility (mole fraction) (in n-butanol, 278.15 K): 0.0122 | solubility (mole fraction) (in n-butanol, 283.15 K): 0.0139 | solubility (mole fraction) (in n-butanol, 288.15 K): 0.0157 | solubility (mole fraction) (in n-butanol, 293.15 K): 0.0179 | solubility (mole fraction) (in n-butanol, 298.15 K): 0.0202 | solubility (mole fraction) (in n-butanol, 303.15 K): 0.0227 | solubility (mole fraction) (in n-butanol, 308.15 K): 0.0254 | solubility (mole fraction) (in n-butanol, 313.15 K): 0.0285 | solubility (mole fraction) (in n-butanol, 318.15 K): 0.0317 | solubility (mole fraction) (in n-butanol, 323.15 K): 0.0354 | solubility (mole fraction) (in n-heptane, 278.15 K): 0.000583 | solubility (mole fraction) (in n-heptane, 283.15 K): 0.00075 | solubility (mole fraction) (in n-heptane, 288.15 K): 0.00095 | solubility (mole fraction) (in n-heptane, 293.15 K): 0.0012 | solubility (mole fraction) (in n-heptane, 298.15 K): 0.0015 | solubility (mole fraction) (in n-heptane, 303.15 K): 0.00187 | solubility (mole fraction) (in n-heptane, 308.15 K): 0.00229 | solubility (mole fraction) (in n-heptane, 313.15 K): 0.00281 | solubility (mole fraction) (in n-heptane, 318.15 K): 0.00343 | solubility (mole fraction) (in n-heptane, 323.15 K): 0.00415 | solubility (mole fraction) (in n-hexane, 278.15 K): 0.000393 | solubility (mole fraction) (in n-hexane, 283.15 K): 0.000511 | solubility (mole fraction) (in n-hexane, 288.15 K): 0.000652 | solubility (mole fraction) (in n-hexane, 293.15 K): 0.000851 | solubility (mole fraction) (in n-hexane, 298.15 K): 0.00106 | solubility (mole fraction) (in n-hexane, 303.15 K): 0.00132 | solubility (mole fraction) (in n-hexane, 308.15 K): 0.00165 | solubility (mole fraction) (in n-hexane, 313.15 K): 0.00202 | solubility (mole fraction) (in n-hexane, 318.15 K): 0.0025 | solubility (mole fraction) (in n-hexane, 323.15 K): 0.00306 | solubility (mole fraction) (in n-propanol, 278.15 K): 0.0098 | solubility (mole fraction) (in n-propanol, 283.15 K): 0.0114 | solubility (mole fraction) (in n-propanol, 288.15 K): 0.0134 | solubility (mole fraction) (in n-propanol, 293.15 K): 0.0155 | solubility (mole fraction) (in n-propanol, 298.15 K): 0.018 | solubility (mole fraction) (in n-propanol, 303.15 K): 0.0205 | solubility (mole fraction) (in n-propanol, 308.15 K): 0.0235 | solubility (mole fraction) (in n-propanol, 313.15 K): 0.0269 | solubility (mole fraction) (in n-propanol, 318.15 K): 0.0305 | solubility (mole fraction) (in n-propanol, 323.15 K): 0.0347 | solubility (mole fraction) (in toluene, 278.15 K): 0.000808 | solubility (mole fraction) (in toluene, 283.15 K): 0.000993 | solubility (mole fraction) (in toluene, 288.15 K): 0.00124 | solubility (mole fraction) (in toluene, 293.15 K): 0.00153 | solubility (mole fraction) (in toluene, 298.15 K): 0.00186 | solubility (mole fraction) (in toluene, 303.15 K): 0.00225 | solubility (mole fraction) (in toluene, 308.15 K): 0.00272 | solubility (mole fraction) (in toluene, 313.15 K): 0.00324 | solubility (mole fraction) (in toluene, 318.15 K): 0.00387 | solubility (mole fraction) (in toluene, 323.15 K): 0.00461
